{"source": "paper PMC5218480", "about": "(PLoS ONE, 2017)", "tested_on": "MV-4-11 cells", "test": "Gene expression microarray analysis (Affymetrix PrimeView) and GSEA", "assay_type": "cell-based, human", "parameters": "RFU PODN (11730768_x_at) / Fold change /veh PODN (11730768_x_at) / RFU LINC00158 (11744669_a_at) / Fold change /veh LINC00158 (11744669_a_at) / RFU DUSP10 (11751237_a_at) / Fold change /veh DUSP10 (11751237_a_at) / RFU ID3 (11757404_x_at) / Fold change /veh ID3 (11757404_x_at) / RFU PLEKHG5 (11737974_s_at) / Fold change /veh PLEKHG5 (11737974_s_at) / RFU LRRC4B (11730491_at) / Fold change /veh LRRC4B (11730491_at) / RFU GIMAP4 (11747438_a_at) / Fold change /veh GIMAP4 (11747438_a_at) / RFU KRT8 (11758183_x_at) / Fold change /veh KRT8 (11758183_x_at) / RFU CNN1 (11734310_a_at) / Fold change /veh CNN1 (11734310_a_at) / RFU VPS37D (11726825_at) / Fold change /veh VPS37D (11726825_at) / RFU C10orf10 (11716522_x_at) / Fold change /veh C10orf10 (11716522_x_at) / RFU KIR2DL2 /// KIR2DL4 /// KIR2DL5A /// KIR2DL5B /// KIR2DS1 /// KIR2DS2 /// KIR2DS3 /// KIR2DS4 /// KIR3DL3 /// KIR3DL3 /// KIR3DS1 (11738374_at) / Fold change /veh KIR2DL2 /// KIR2DL4 /// KIR2DL5A /// KIR2DL5B /// KIR2DS1 /// KIR2DS2 /// KIR2DS3 /// KIR2DS4 /// KIR3DL3 /// KIR3DL3 /// KIR3DS1 (11738374_at) / RFU C1QL1 (11718748_at) / Fold change /veh C1QL1 (11718748_at) / RFU TMPRSS4 (11747572_a_at) / Fold change /veh TMPRSS4 (11747572_a_at) / RFU HAMP (11756126_x_at) / Fold change /veh HAMP (11756126_x_at) / RFU RNFT2 (11725882_a_at) / Fold change /veh RNFT2 (11725882_a_at) / RFU NR4A2 (11747474_a_at) / Fold change /veh NR4A2 (11747474_a_at) / RFU ABCC12 (11746883_a_at) / Fold change /veh ABCC12 (11746883_a_at) / RFU TMEM136 (11760407_x_at) / Fold change /veh TMEM136 (11760407_x_at) / RFU CLDN22 /// WWC2 (11732394_at) / Fold change /veh CLDN22 /// WWC2 (11732394_at) / RFU HLA-DPB1 (11760878_x_at) / Fold change /veh HLA-DPB1 (11760878_x_at) / RFU SPINT1 (11716480_a_at) / Fold change /veh SPINT1 (11716480_a_at) / RFU GAP43 (11754022_s_at) / Fold change /veh GAP43 (11754022_s_at) / RFU A4GNT (11735810_at) / Fold change /veh A4GNT (11735810_at) / RFU PRB3 (11715151_x_at) / Fold change /veh PRB3 (11715151_x_at) / RFU TUBB4B (11761932_at) / Fold change /veh TUBB4B (11761932_at) / RFU CAPN14 (11732068_a_at) / Fold change /veh CAPN14 (11732068_a_at) / RFU TMCC2 (11721928_a_at) / Fold change /veh TMCC2 (11721928_a_at) / RFU IRGQ (11745062_a_at) / Fold change /veh IRGQ (11745062_a_at) / RFU FAM174B (11720279_a_at) / Fold change /veh FAM174B (11720279_a_at) / RFU TMPRSS4 (11748680_a_at) / Fold change /veh TMPRSS4 (11748680_a_at) / RFU FAM212B (11763350_a_at) / Fold change /veh FAM212B (11763350_a_at) / RFU PLEKHG5 (11743358_a_at) / Fold change /veh PLEKHG5 (11743358_a_at) / RFU ZSCAN30 (11745921_a_at) / Fold change /veh ZSCAN30 (11745921_a_at) / RFU CMKLR1 (11741424_a_at) / Fold change /veh CMKLR1 (11741424_a_at) / RFU LOC101060620 /// MAPK8IP1 (11723275_at) / Fold change /veh LOC101060620 /// MAPK8IP1 (11723275_at) / RFU SPTSSB (11747773_x_at) / Fold change /veh SPTSSB (11747773_x_at) / RFU PRSS12 (11739890_at) / Fold change /veh PRSS12 (11739890_at) / RFU BIN1 (11741810_x_at) / Fold change /veh BIN1 (11741810_x_at) / RFU WNT11 (11732464_a_at) / Fold change /veh WNT11 (11732464_a_at) / RFU C10orf10 (11716521_a_at) / Fold change /veh C10orf10 (11716521_a_at) / RFU C5orf56 (11738089_at) / Fold change /veh C5orf56 (11738089_at) / RFU CYB561 (11721691_x_at) / Fold change /veh CYB561 (11721691_x_at) / RFU ANKRD19P (11752326_a_at) / Fold change /veh ANKRD19P (11752326_a_at) / RFU OR2T12 /// OR2T33 /// OR2T8 (11738714_s_at) / Fold change /veh OR2T12 /// OR2T33 /// OR2T8 (11738714_s_at) / RFU VCAN (11748164_a_at) / Fold change /veh VCAN (11748164_a_at) / RFU JSRP1 (11732532_at) / Fold change /veh JSRP1 (11732532_at) / RFU KRTAP10-11 (11738290_x_at) / Fold change /veh KRTAP10-11 (11738290_x_at) / RFU MYO3A (11730013_a_at) / Fold change /veh MYO3A (11730013_a_at) / RFU EBF3 (11725865_a_at) / Fold change /veh EBF3 (11725865_a_at) / RFU CAMK2N1 (11719241_x_at) / Fold change /veh CAMK2N1 (11719241_x_at) / RFU C5orf56 (11738088_a_at) / Fold change /veh C5orf56 (11738088_a_at) / RFU OLFML3 (11715873_a_at) / Fold change /veh OLFML3 (11715873_a_at) / RFU LOC100653217 /// NTM (11731650_a_at) / Fold change /veh LOC100653217 /// NTM (11731650_a_at) / RFU MAPK11 (11762145_a_at) / Fold change /veh MAPK11 (11762145_a_at) / RFU FIZ1 (11724087_x_at) / Fold change /veh FIZ1 (11724087_x_at) / RFU OASL (11726364_x_at) / Fold change /veh OASL (11726364_x_at) / RFU SOX15 (11748057_x_at) / Fold change /veh SOX15 (11748057_x_at) / RFU CD79A (11719716_a_at) / Fold change /veh CD79A (11719716_a_at) / RFU HIST1H1D (11736915_at) / Fold change /veh HIST1H1D (11736915_at) / RFU CASKIN2 (11723855_a_at) / Fold change /veh CASKIN2 (11723855_a_at) / RFU LOC730098 (11760151_x_at) / Fold change /veh LOC730098 (11760151_x_at) / RFU OR4N2 (11742367_at) / Fold change /veh OR4N2 (11742367_at) / RFU PRRT2 (11749266_a_at) / Fold change /veh PRRT2 (11749266_a_at) / RFU SNX32 (11753110_a_at) / Fold change /veh SNX32 (11753110_a_at) / RFU CDHR5 (11726645_a_at) / Fold change /veh CDHR5 (11726645_a_at) / RFU RCAN1 (11760418_a_at) / Fold change /veh RCAN1 (11760418_a_at) / RFU FAM167A (11723789_a_at) / Fold change /veh FAM167A (11723789_a_at) / RFU FAM26E (11764081_at) / Fold change /veh FAM26E (11764081_at) / RFU ISYNA1 (11749810_s_at) / Fold change /veh ISYNA1 (11749810_s_at) / RFU ACY1 (11761880_at) / Fold change /veh ACY1 (11761880_at) / RFU 11764098_at / Fold change /veh 11764098_at / RFU SAMD14 (11745864_x_at) / Fold change /veh SAMD14 (11745864_x_at) / RFU NPB (11741838_a_at) / Fold change /veh NPB (11741838_a_at) / RFU TMPRSS6 (11731388_a_at) / Fold change /veh TMPRSS6 (11731388_a_at) / RFU KRTAP10-2 (11738614_at) / Fold change /veh KRTAP10-2 (11738614_at) / RFU ARHGAP8 /// PRR5-ARHGAP8 (11727945_x_at) / Fold change /veh ARHGAP8 /// PRR5-ARHGAP8 (11727945_x_at) / RFU KRTAP5-7 /// NADSYN1 (11734609_at) / Fold change /veh KRTAP5-7 /// NADSYN1 (11734609_at) / RFU RASL12 (11751679_a_at) / Fold change /veh RASL12 (11751679_a_at) / RFU CDKN2B (11736163_a_at) / Fold change /veh CDKN2B (11736163_a_at) / RFU PRF1 (11729649_at) / Fold change /veh PRF1 (11729649_at) / RFU, ZNF638 /// ZNF638-IT1 / Fold change vs veh, ZNF638 /// ZNF638-IT1 / RFU, PANK3 / Fold change vs veh, PANK3 / RFU, SH3YL1 / Fold change vs veh, SH3YL1 / RFU, ZEB2 / Fold change vs veh, ZEB2 / RFU, NRIP1 / Fold change vs veh, NRIP1 / RFU, PTTG1IP / Fold change vs veh, PTTG1IP / RFU, CAPN2 / Fold change vs veh, CAPN2 / RFU, MED14 / Fold change vs veh, MED14 / RFU, SNORA58 / Fold change vs veh, SNORA58 / RFU, C1orf63 / Fold change vs veh, C1orf63 / RFU, LRRFIP1 / Fold change vs veh, LRRFIP1 / RFU, NDUFAF7 / Fold change vs veh, NDUFAF7 / RFU, SLC12A2 / Fold change vs veh, SLC12A2 / RFU, IBTK / Fold change vs veh, IBTK / RFU, ESF1 / Fold change vs veh, ESF1 / Fold change vs veh, TMEM50B / RFU, TAOK1 / Fold change vs veh, TAOK1 / RFU, ACBD3 / Fold change vs veh, ACBD3 / RFU, TMA16 / Fold change vs veh, TMA16 / RFU, RWDD3 / Fold change vs veh, RWDD3 / RFU, BCAT1 / Fold change vs veh, BCAT1 / RFU, EDEM3 / Fold change vs veh, EDEM3 / RFU, TMEM33 / Fold change vs veh, TMEM33 / RFU, WDR75 / Fold change vs veh, WDR75 / RFU, AHCTF1 / Fold change vs veh, AHCTF1 / RFU, TFRC / Fold change vs veh, TFRC / RFU, ZDHHC17 / Fold change vs veh, ZDHHC17 / RFU, NOM1 / Fold change vs veh, NOM1 / RFU, ARL8B / Fold change vs veh, ARL8B / RFU, ZBTB11 / Fold change vs veh, ZBTB11 / RFU, TAMM41 / Fold change vs veh, TAMM41 / RFU, KIAA1704 /// LOC100996395 / Fold change vs veh, KIAA1704 /// LOC100996395 / RFU, ING1 / Fold change vs veh, ING1 / RFU, TRMT61B / Fold change vs veh, TRMT61B / RFU, FUBP3 / Fold change vs veh, FUBP3 / RFU, TP53 / Fold change vs veh, TP53 / RFU, TNKS2 / Fold change vs veh, TNKS2 / RFU, ZFP14 / Fold change vs veh, ZFP14 / RFU, ACTR2 / Fold change vs veh, ACTR2 / RFU, PPP3R1 / Fold change vs veh, PPP3R1 / RFU, PIK3R1 / Fold change vs veh, PIK3R1 / RFU, HNRNPA1 / Fold change vs veh, HNRNPA1 / RFU, RNF170 / Fold change vs veh, RNF170 / RFU, ZNF28 / Fold change vs veh, ZNF28 / RFU, RNGTT / Fold change vs veh, RNGTT / RFU, OGT / Fold change vs veh, OGT / RFU, BRD1 / Fold change vs veh, BRD1 / RFU, MARS / Fold change vs veh, MARS / RFU, ZNF655 / Fold change vs veh, ZNF655 / RFU, FAHD1 / Fold change vs veh, FAHD1 / RFU, BDP1 / Fold change vs veh, BDP1 / RFU, LRRCC1 / Fold change vs veh, LRRCC1 / RFU, ARID1A / Fold change vs veh, ARID1A / RFU, ZNF146 / Fold change vs veh, ZNF146 / RFU, ZNF330 / Fold change vs veh, ZNF330 / RFU, GPN3 / Fold change vs veh, GPN3 / RFU, C9orf123 / Fold change vs veh, C9orf123 / RFU, N4BP2L2 / Fold change vs veh, N4BP2L2 / RFU, ARFIP1 / Fold change vs veh, ARFIP1 / RFU, FAM179B / Fold change vs veh, FAM179B / RFU, BCL10 / Fold change vs veh, BCL10 / RFU, UHRF1BP1L / Fold change vs veh, UHRF1BP1L / RFU, BET1 / Fold change vs veh, BET1 / RFU, CNOT2 / Fold change vs veh, CNOT2 / RFU, ZNF268 / Fold change vs veh, ZNF268 / Fold change vs veh, ZNF507 / RFU, DGCR2 / Fold change vs veh, DGCR2 / RFU, WDSUB1 / Fold change vs veh, WDSUB1 / Fold change vs veh, HSP90B1 /// MIR3652 / RFU, ADSS / Fold change vs veh, ADSS / RFU, GK / Fold change vs veh, GK / RFU, ZNF148 / Fold change vs veh, ZNF148 / RFU, TAF9 / Fold change vs veh, TAF9 / RFU, SLC1A5 / Fold change vs veh, SLC1A5 / RFU, SLMO2 / Fold change vs veh, SLMO2 / RFU, ABCC4 / Fold change vs veh, ABCC4 / RFU, LOC101060439 /// RAP1B / Fold change vs veh, LOC101060439 /// RAP1B / RFU, RFX7 / Fold change vs veh, RFX7 / RFU, GTPBP10 / Fold change vs veh, GTPBP10 / RFU, CNEP1R1 / Fold change vs veh, CNEP1R1 / RFU, BIVM-ERCC5 /// ERCC5 / Fold change vs veh, BIVM-ERCC5 /// ERCC5 / RFU, ILF3 / Fold change vs veh, ILF3 / RFU 11762660_at / Fold change /veh 11762660_at / RFU VCAN (11757783_s_at) / Fold change /veh VCAN (11757783_s_at) / RFU DDX43 (11728927_at) / Fold change /veh DDX43 (11728927_at) / RFU KRT8 (11758188_x_at) / Fold change /veh KRT8 (11758188_x_at) / RFU NKD1 (11759106_at) / Fold change /veh NKD1 (11759106_at) / RFU SRD5A1 (11742802_a_at) / Fold change /veh SRD5A1 (11742802_a_at) / RFU TPSAB1 /// TPSB2 (11721975_s_at) / Fold change /veh TPSAB1 /// TPSB2 (11721975_s_at) / RFU GSTM3 (11746129_a_at) / Fold change /veh GSTM3 (11746129_a_at) / RFU IL23R (11737362_x_at) / Fold change /veh IL23R (11737362_x_at) / RFU TMEM51 (11727254_a_at) / Fold change /veh TMEM51 (11727254_a_at) / RFU PIWIL2 (11732686_x_at) / Fold change /veh PIWIL2 (11732686_x_at) / RFU ORM1 (11744905_x_at) / Fold change /veh ORM1 (11744905_x_at) / RFU CCDC152 (11743942_at) / Fold change /veh CCDC152 (11743942_at) / RFU ECM1 (11717891_a_at) / Fold change /veh ECM1 (11717891_a_at) / RFU IL23R (11748794_a_at) / Fold change /veh IL23R (11748794_a_at) / RFU TNFAIP8L3 (11732012_x_at) / Fold change /veh TNFAIP8L3 (11732012_x_at) / RFU MBOAT4 (11741988_at) / Fold change /veh MBOAT4 (11741988_at) / RFU 11764193_at / Fold change /veh 11764193_at / RFU TMEM53 (11763286_at) / Fold change /veh TMEM53 (11763286_at) / RFU MAGEB2 (11727129_at) / Fold change /veh MAGEB2 (11727129_at) / RFU TMEM200A (11744735_a_at) / Fold change /veh TMEM200A (11744735_a_at) / RFU CCDC152 (11751479_a_at) / Fold change /veh CCDC152 (11751479_a_at) / RFU FAM211A (11726209_a_at) / Fold change /veh FAM211A (11726209_a_at) / RFU RGS16 (11746705_a_at) / Fold change /veh RGS16 (11746705_a_at) / RFU VCAN (11755009_s_at) / Fold change /veh VCAN (11755009_s_at) / RFU RHOB (11743442_s_at) / Fold change /veh RHOB (11743442_s_at) / RFU RGS16 (11720943_a_at) / Fold change /veh RGS16 (11720943_a_at) / RFU RGS16 (11720944_at) / Fold change /veh RGS16 (11720944_at) / RFU, VPS4B / Fold change vs veh, VPS4B / RFU, CREB1 / Fold change vs veh, CREB1 / RFU, DNAJC13 / Fold change vs veh, DNAJC13 / RFU, GNAQ / Fold change vs veh, GNAQ / RFU, CDK5R1 / Fold change vs veh, CDK5R1 / RFU, ZRANB3 / Fold change vs veh, ZRANB3 / RFU, CUL4A / Fold change vs veh, CUL4A / RFU, CCNY / Fold change vs veh, CCNY / RFU, UFL1 / Fold change vs veh, UFL1 / RFU, COG3 / Fold change vs veh, COG3 / RFU, DIAPH2 / Fold change vs veh, DIAPH2 / RFU, SKA2 / Fold change vs veh, SKA2 / RFU, AFF3 / Fold change vs veh, AFF3 / RFU, LMF1 / Fold change vs veh, LMF1 / RFU, IPO11 / Fold change vs veh, IPO11 / RFU, DFFB / Fold change vs veh, DFFB / RFU, FOXP1 / Fold change vs veh, FOXP1 / RFU, CARD8 / Fold change vs veh, CARD8 / RFU, STRN3 / Fold change vs veh, STRN3 / RFU, ADK / Fold change vs veh, ADK / RFU, RASSF2 / Fold change vs veh, RASSF2 / RFU, WIPF1 / Fold change vs veh, WIPF1 / RFU, LARP1B / Fold change vs veh, LARP1B / RFU, RASA1 / Fold change vs veh, RASA1 / RFU, RB1 / Fold change vs veh, RB1 / RFU, PPFIA1 / Fold change vs veh, PPFIA1 / RFU, MAT2A / Fold change vs veh, MAT2A / RFU, CCT5 / Fold change vs veh, CCT5 / RFU, WDR92 / Fold change vs veh, WDR92 / RFU, CUX1 / Fold change vs veh, CUX1 / RFU, TTC7A / Fold change vs veh, TTC7A / RFU, TMEM135 / Fold change vs veh, TMEM135 / RFU, DEPTOR / Fold change vs veh, DEPTOR / RFU, CPM / Fold change vs veh, CPM / RFU, DNAJB6 / Fold change vs veh, DNAJB6 / RFU, CACNA2D3 / Fold change vs veh, CACNA2D3 / RFU, DTX4 / Fold change vs veh, DTX4 / RFU, TFCP2 / Fold change vs veh, TFCP2 / RFU, GMCL1 /// GMCL1P1 / Fold change vs veh, GMCL1 /// GMCL1P1 / RFU, AEBP2 / Fold change vs veh, AEBP2 / RFU, SNHG1 /// SNORD22 /// SNORD25 /// SNORD26 /// SNORD27 /// SNORD28 /// SNORD29 /// SNORD31 / Fold change vs veh, SNHG1 /// SNORD22 /// SNORD25 /// SNORD26 /// SNORD27 /// SNORD28 /// SNORD29 /// SNORD31 / Fold change (Aza/veh), C12orf56 (ProbeSet 11735607_a_at) / Fold change (ACY-1035/veh), C12orf56 (ProbeSet 11735607_a_at) / Fold change (Aza/veh), FGFR1OP (ProbeSet 11751329_s_at) / Fold change (ACY-1035/veh), FGFR1OP (ProbeSet 11751329_s_at) / Fold change (Aza/veh), VPS36 (ProbeSet 11739960_a_at) / Fold change (ACY-1035/veh), VPS36 (ProbeSet 11739960_a_at) / RFU SYPL1 (11715823_x_at) / Fold change /veh SYPL1 (11715823_x_at) / RFU IGFBP7 (11715501_s_at) / Fold change /veh IGFBP7 (11715501_s_at) / RFU REEP3 (11722064_at) / Fold change /veh REEP3 (11722064_at) / RFU IGLL1 (11728026_x_at) / Fold change /veh IGLL1 (11728026_x_at): dose or concentration left out as unconfirmed", "details": "MV-4-11 cells, 48 hours"}
{"smiles": "Nc1ncn([C@@H]2O[C@H](CO)[C@@H](O)[C@H]2O)c(=O)n1", "note": "[azacitidine]", "values": [{"measurement": "RFU ECM1 (11717891_a_at)", "result": 24.53, "unit": "RFU"}]}
